Laboratory results published in paper PMC12067145 (ACS Medicinal Chemistry Letters, 2025).

Key:
[1] = Rat IV:PBL PK cassette study / in vivo rat clearance; settings: male, Sprague-Dawley, 0.2 mg/kg
[2] = tested on: GABAA, Flunitrazepam, Central; assay: Eurofins lead profiling screen (radioligand binding); set-up: species or system Rat
[3] = target: Opiate κ (OP2, KOP) (Homo sapiens, UniProt P41145); assay: as above
[4] = target: Potassium Channel [KATP] (Cricetus cricetus, UniProt Q09427); assay: as above; set-up: species or system Hamster
Potassium Channel [KATP], sequence (Q09427 whole entry): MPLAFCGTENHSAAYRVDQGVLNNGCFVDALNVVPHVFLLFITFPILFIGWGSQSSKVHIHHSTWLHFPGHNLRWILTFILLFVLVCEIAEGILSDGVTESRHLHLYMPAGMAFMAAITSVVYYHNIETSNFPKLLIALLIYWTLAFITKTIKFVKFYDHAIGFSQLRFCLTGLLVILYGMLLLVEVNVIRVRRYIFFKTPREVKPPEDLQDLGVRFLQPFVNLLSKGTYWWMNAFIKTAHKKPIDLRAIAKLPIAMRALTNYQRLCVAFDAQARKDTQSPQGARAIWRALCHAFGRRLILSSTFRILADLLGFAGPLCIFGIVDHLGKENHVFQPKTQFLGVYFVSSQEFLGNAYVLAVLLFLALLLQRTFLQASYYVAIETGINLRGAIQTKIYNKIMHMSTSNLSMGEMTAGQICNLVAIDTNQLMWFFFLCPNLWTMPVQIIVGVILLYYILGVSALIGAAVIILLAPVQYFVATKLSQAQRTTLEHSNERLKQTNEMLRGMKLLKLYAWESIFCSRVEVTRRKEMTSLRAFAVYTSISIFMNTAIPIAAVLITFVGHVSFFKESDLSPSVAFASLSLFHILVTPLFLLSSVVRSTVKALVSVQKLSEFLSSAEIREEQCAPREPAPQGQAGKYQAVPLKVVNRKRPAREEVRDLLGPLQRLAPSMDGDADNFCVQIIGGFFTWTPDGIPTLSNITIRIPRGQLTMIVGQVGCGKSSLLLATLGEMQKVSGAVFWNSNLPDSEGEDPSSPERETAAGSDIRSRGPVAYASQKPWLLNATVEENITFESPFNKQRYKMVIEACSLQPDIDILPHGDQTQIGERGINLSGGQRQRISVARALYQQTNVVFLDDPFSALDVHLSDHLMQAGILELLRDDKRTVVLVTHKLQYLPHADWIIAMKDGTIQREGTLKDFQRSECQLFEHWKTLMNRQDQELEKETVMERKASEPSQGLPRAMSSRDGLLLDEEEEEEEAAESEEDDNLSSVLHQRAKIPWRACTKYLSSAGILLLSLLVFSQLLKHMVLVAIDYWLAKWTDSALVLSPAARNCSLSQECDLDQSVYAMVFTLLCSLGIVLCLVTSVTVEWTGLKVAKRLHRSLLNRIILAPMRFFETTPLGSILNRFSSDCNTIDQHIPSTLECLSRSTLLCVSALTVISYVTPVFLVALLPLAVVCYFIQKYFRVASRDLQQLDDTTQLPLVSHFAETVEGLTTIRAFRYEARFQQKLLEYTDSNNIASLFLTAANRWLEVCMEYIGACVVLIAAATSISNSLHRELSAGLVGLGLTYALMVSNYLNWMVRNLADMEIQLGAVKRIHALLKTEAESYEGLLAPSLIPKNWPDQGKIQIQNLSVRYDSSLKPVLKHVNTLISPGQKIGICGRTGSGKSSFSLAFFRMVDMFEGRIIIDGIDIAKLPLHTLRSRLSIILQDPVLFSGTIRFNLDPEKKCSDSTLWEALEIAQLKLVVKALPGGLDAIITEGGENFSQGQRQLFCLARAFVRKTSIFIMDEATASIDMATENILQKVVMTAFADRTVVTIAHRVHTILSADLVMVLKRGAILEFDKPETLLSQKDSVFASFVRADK

[5] = target: Neuropeptide Y Y2 (Homo sapiens, UniProt P49146); assay: as above
Neuropeptide Y Y2, sequence (P49146 whole entry): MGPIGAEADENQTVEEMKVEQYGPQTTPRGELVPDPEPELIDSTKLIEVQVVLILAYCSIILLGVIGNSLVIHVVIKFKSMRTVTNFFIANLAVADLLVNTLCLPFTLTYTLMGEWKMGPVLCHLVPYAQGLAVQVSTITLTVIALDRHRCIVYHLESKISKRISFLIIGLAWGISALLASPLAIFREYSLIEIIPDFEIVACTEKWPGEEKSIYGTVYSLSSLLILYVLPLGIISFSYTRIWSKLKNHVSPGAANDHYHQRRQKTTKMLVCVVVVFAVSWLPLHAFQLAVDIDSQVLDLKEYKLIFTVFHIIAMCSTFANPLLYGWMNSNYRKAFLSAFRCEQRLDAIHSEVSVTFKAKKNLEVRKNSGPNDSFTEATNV

[6] = target: Calcium Channel N-Type (Rattus norvegicus, UniProt Q02294); assay: as above
[7] = target: Transporter, Norepinephrine (NET) (Homo sapiens, UniProt P23975); assay: as above
Transporter, Norepinephrine (NET), sequence (P23975 whole entry): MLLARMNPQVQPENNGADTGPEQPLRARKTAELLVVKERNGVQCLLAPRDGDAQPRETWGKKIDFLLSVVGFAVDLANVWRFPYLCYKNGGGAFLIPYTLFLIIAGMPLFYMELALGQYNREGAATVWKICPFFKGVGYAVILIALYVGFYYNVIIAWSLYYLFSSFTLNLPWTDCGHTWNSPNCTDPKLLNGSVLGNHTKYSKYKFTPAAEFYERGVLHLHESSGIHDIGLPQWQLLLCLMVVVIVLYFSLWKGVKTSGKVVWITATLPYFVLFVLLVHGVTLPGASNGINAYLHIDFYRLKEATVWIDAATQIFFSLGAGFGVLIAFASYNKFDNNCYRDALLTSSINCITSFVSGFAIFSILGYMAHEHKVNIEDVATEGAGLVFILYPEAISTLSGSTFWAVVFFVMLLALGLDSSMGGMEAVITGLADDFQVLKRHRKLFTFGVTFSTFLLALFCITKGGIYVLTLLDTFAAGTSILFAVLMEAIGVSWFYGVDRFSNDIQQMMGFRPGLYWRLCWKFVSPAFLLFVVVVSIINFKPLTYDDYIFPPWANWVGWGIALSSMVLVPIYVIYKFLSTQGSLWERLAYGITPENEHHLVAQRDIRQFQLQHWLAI

[8] = target: Opiate δ1 (OP1, DOP) (Homo sapiens, UniProt P41143); assay: as above
Opiate δ1 (OP1, DOP), sequence (P41143 whole entry): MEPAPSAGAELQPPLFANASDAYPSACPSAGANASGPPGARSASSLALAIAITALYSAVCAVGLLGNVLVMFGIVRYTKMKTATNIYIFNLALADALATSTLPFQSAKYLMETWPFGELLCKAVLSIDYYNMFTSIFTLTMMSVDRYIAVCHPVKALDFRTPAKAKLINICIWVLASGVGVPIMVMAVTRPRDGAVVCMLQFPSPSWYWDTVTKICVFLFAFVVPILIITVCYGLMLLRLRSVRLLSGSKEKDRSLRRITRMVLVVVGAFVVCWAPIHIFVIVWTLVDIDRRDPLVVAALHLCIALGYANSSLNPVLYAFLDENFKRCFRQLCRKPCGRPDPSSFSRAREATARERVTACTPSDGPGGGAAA

[9] = target: Endothelin ETA (Homo sapiens, UniProt P25101); assay: as above
Endothelin ETA, sequence (P25101 21-427): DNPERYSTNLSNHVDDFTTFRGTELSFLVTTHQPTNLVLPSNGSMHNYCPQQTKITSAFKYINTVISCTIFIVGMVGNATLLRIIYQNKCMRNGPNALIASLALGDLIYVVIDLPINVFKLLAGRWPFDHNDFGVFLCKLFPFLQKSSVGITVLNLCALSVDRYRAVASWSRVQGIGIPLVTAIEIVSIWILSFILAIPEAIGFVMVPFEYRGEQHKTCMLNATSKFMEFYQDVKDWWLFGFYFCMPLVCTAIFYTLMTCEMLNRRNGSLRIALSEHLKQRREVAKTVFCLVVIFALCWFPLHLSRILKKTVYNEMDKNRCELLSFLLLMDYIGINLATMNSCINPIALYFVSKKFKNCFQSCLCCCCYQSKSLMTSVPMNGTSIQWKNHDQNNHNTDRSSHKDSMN

Opiate κ (OP2, KOP), sequence (P41145 whole entry): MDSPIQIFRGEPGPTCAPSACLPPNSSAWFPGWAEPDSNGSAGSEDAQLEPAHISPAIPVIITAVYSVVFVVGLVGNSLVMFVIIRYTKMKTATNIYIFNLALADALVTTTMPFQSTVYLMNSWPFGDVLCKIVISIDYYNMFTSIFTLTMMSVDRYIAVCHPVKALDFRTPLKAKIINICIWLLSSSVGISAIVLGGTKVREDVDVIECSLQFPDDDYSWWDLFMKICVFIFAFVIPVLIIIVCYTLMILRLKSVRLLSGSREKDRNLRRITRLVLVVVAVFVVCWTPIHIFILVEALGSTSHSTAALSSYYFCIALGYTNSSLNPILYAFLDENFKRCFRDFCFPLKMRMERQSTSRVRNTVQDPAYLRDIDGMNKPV

Row | SMILES | clearance at 24 h ([1]; iv, in vivo rat plasma clearance, read-out: rat CLp) [mL/min/kg] | half-life at 24 h ([1]; plasma, rat IV:PBL PK cassette) [h] | Vd at 24 h ([1]; plasma, rat IV:PBL PK cassette, read-out: volume of distribution) [L/kg] | % Inhibition at 10 µM [2] [%] | inhibition at 10 µM [3] [%] | inhibition at 10 µM [4] [%] | inhibition at 10 µM [5] [%] | inhibition at 10 µM [6] [%] | inhibition at 10 µM [7] [%] | inhibition at 10 µM [8] [%] | inhibition at 10 µM [9] [%]
1 | Cc1cc(C#Cc2ccc(F)cc2)cnc1NC(=O)c1cc(NC(=O)OC(C)(C)C)ccc1Cl [Compound 14c] | 21.2 | 6.78 | 6.7 | – | – | – | – | – | – | – | –
2 | O=C(NCc1ccc(OC(F)(F)F)cc1F)c1ccc2ncnn2c1 [ONO-2920632] | – | – | – | -9 | 9 | -6 | 6 | 4 | 29 | -8 | -11
